Source: patent publication US20250179126A1, “A NOVEL PEPTIDE FROM A PHOTOSYNTHETIC BACERIUM DIRECTLY TARGETS MITOCHONDRIA TO TRIGGER APOPTOSIS IN ADVANCED PROSTATE CANCER CELLS” (priority 2022, published 2025)
“Also recorded” adds a separate entry of the source.

Columns and labels:
Type in all cases: cell-based, human
MDA-MB-231 cells = assay: Aldolase A secretion and expression in MDA-MB-231 cells treated with purified azurin; details: MDA-MB-231, purified azurin 100 nM, 10 μM, 1 mM, 30 min
Procedure: FIG. 18A-18G: Induction of aldolase A secretion by host cells in the presence of P. aeruginosa. 18A. […] Aldolase secretion varied between the co-cultures with cancer and normal cells. […] 18B Correlation between the aldolase A and azurin levels in co-cultures of P. aeruginosa with cancer or normal cells. […] Secretion of aldolase into the culture supernatant was assessed by western blot analysis. 18D P. aeruginosa (OD=0.3) was treated with purified aldolase A protein at concentrations of 1 nM, 10 nM, 100 nM, and 1 μM for 30 min. […] MDA-MB-231 (18E) and Mel-2 (18F) cells were treated with purified azurin protein at concentrations of 100 nM, 10 μM, and 1 mM for 30 min. […] 18G Aldolase A secretion in the presence of P. aeruginosa is distance-dependent. […]
Aldolase A gene expression in MDA-MB-231 (black bars) and Mel-2 (white bars) cells was determined by RT-PCR (22A). […] 22B: Intracellular levels of aldolase A were assessed by western blot analysis with an anti-aldolase A antibody. […]
Western blotting: After running the NuPAGE, proteins were transferred to PVDF membranes (BioRad Laboratories Inc, Hercules, CA) which were blocked in SuperBlock (T20 TBS buffer, Thermo Fisher) for one hour. […] The signal was detected using enhanced chemiluminescence (ECL, Thermo Fisher Scientific). Quantitative analysis of the bands was performed with a computer-assisted imaging densitometer (UN-SCAN-IT gel version 5.1). […]

[1] = test system: MCF-7 breast cancer cells; assay: MTT cell viability assay, MCF-7 breast cancer cells; details: MCF-7, 5-100 μM, 24 hr
Description: (§1) Cell viability was detected by MTT assays, and the control (PBS-treated) cells were considered 100% viable. Mean±SE (N=3). *P<0.05, **P<0.01, ***P<0.001.
(§2) Cell lines and culture: Human cancer and noncancer (immortalized and nonimmortalized) cell lines were obtained from the American Type Culture Collection [prostate cancer (PC3, DU145 and LNCaP), normal prostate (CRL11611), breast cancer (MCF-7), ovarian cancer (SK-OV3 adenocarcinoma), lung cancer (A549)]. MDD2 breast cancer cells (p53 dominant-negative) were provided courtesy of Dr Andrei V. Gudkov, Roswell Park Cancer Institute. 20 All cell lines were cultured in MEM-E (Invitrogen) supplemented with 10% heat-inactivated fetal bovine serum (Atlanta Biological, Inc.), 100 units/mL penicillin, and 100 μg/mL streptomycin at 37° C. in 5% CO2.
(§3) Cytotoxicity assay: The MTT assay was performed as we previously described (Cha et al., Cancer Research 2020, 80: 1615-1623).

DU145 cells = assay: Annexin-V apoptosis assay by flow cytometry, DU145; details: DU145, 48 hr; Ptxl 1 nM, p28 50 μM, aurA/aurB 0.5-50 μM
Procedure: (§4) FIG. 7A-7D: Determination of apoptotic cell death. Prostate cancer cell lines (7A: LNCaP, 7B: DU145 and 7C: PC3) and normal prostate CRL11611 cells (7D) were exposed to the indicated agents for 48 hr and stained using apoptosis assay kits according to the manufacturer's instructions. The samples were analyzed by flow cytometry. Mean±SE (N=3).
(§5) After 48 hr, annexin-V apoptosis assays (Thermo Fisher Scientific) were conducted to detect apoptotic cells. At least 10,000 cells in each case were analyzed by FACS (RRC, UIC).

[2] = test system: DU145 prostate cancer cells; assay: MTT cell viability assay, DU145 prostate cancer cells
Description: as §1, §2

PC3 cells [3] = assay: Annexin-V apoptosis assay by flow cytometry, PC3; details: PC3, 48 hr; Ptxl 1 nM, p28 50 μM, aurA/aurB 0.5-50 μM
Procedure: as §4, §5

PC3 cells [4] = assay: Cellular membrane toxicity, LDH leakage assay; details: PC3, 0.2-200 μM, 37° C.
Procedure: FIG. 6A-6B: Cellular membrane toxicity assays. […] Cells treated with lysis buffer were defined as having 100% LDH release. Mean±SE (N=3).
Cellular membrane toxicity: LDH assays were performed as we previously described (Cha et al., Cancer Research 2020, 80: 1615-1623).

[5] = test system: SKOV-3 ovarian cancer cells; assay: MTT cell viability assay, SKOV-3 ovarian cancer cells; details: 24 hr
Description: as §1, §2, §3

Substance | aldolase A gene expression and intracellular levels (MDA-MB-231 cells) | aldolase A secretion into culture medium (western blot) (MDA-MB-231 cells) | anti-proliferative effect (MTT cell viability) [1] | apoptotic cell death (DU145 cells) | cytotoxic effect (MTT cell viability) ([2]; DU145 (p53-mutant, AR−), 24-72 hr, paclitaxel 1 nM) | inhibition rate ([2]; DU145, 100 μM for 72 hr) [%] | anti-proliferative effect (MTT cell viability) ([2]; DU145, 5-100 μM, 24 hr) | apoptotic cell death (PC3 cells [3]) | cellular membrane toxicity (LDH release) (PC3 cells [4]) | effect on p53-inactive cancer cells (MTT) ([5]; SKOV3 (p53-null), 0.1-100 μM) | anti-proliferative effect (MTT cell viability) ([5]; SKOV-3, 5-100 μM)
azurin: 14 kDa periplasmic copper protein of 128 amino acids from P. aeruginosa; purified recombinant | without increasing gene expression or intracellular levels of aldolase A | secreted a considerable amount of human aldolase A | – | – | – | – | – | – | – | – | –
LVN GGD DVA AAV NTA AQN NAD ALF VPPP (LVNGGDDVAAAVNTAAQNNADALFVPPP) [aurB] | – | – | clear dose-dependent effects | induced significant dose-dependent apoptosis | significantly induced dose-dependent cytotoxic effects; also recorded: more sensitive than the normal prostate cell line | ~50 | clear dose-dependent effects | induced significant dose-dependent apoptosis | Neither aurA nor aurB induced cellular membrane toxicity at any concentrations | dose-dependent | clear dose-dependent effects
